Experimental data taken from PubChem BioAssay AID179 (DTP/NCI, 2004).
The source made the active and inactive calls.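 Rule for the calls: active = compounds giving half or more protection of infected cells from virus-caused growth loss, again on retest; inactive = the rest.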 Where a SMILES comes first, the peptide text is derived from it. Bridges are numbered along the chain shown (N, C = ends). [ ]: non-standard residue; d: D form. The star is where a group is joined. ξ: configuration not given here. X16 = O=C(/C=C/C=C/C=C/C=C/C=C/C(=O)*)NC1=C(O)CCC1=O; NMeA = CN[C@@H](C)C(=O)O; ξF = NC(Cc1ccccc1)C(=O)O; ξA = CC(N)C(=O)O

Tested on: CEM cells HIV-1 protection, formazan growth assay
Experiment: NCI AIDS Antiviral Assay
Settings: for IC50: measured here: growth of uninfected CEM cells
How it was run: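 Protection of CEM cells against HIV-1 was scored from cell growth (soluble formazan) across five concentrations, with parallel uninfected cells. Lack of protection may reflect toxicity.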

With `CC1NC(=O)[C@H](C)N(C)C(=O)[C@@H]2CCCN2C(=O)[C@@H](NC(=O)C(Cc2ccccc2)NC(=O)/C=C/C=C/C=C/C=C/C=C/C(=O)NC2=C(O)CCC2=O)COC(=O)[C@@H]2CCCN2C1=O` (stereo partly specified) (X16-[ξF]SP[NMeA][ξA]P; ester 2-C) the EC50 was over 151 µM and the IC50 was over 151 µM.
For `COC(=O)C12C3C4C1C1C2C3C41C(=O)OC(C)(C)C` (stereo unspecified), the EC50 was over 257 µM and the IC50 was over 257 µM.
In the case of `O=c1c2cc(S(=O)(=O)Nc3ccc(Cl)cc3Cl)ccc2ncn1NS(=O)(=O)c1cccc2ccccc12`, the EC50 is reported as over 200 µM and the IC50 is reported as 33.1 µM.
With `CC(C)OC(=O)c1ccc(CCC2=CC(=O)C=CC2=O)cc1` the EC50 was over 200 µM and the IC50 was 8.32 µM.
`OC1C(CBr)OC(OC[C@H](COCc2ccccc2)OCc2ccccc2)C(O)C1O` (stereo partly specified) was tested, and the EC50 was over 214 µM and the IC50 was over 100 µM.
For `O=C(Nc1ccc(NC(=O)c2ccc(C3=NCCN3)cc2)cc1)Nc1ccc(C2=NCCN2)cc1`, the EC50 was over 200 µM and the IC50 was 50.1 µM.
With `Cn1cncc1CC1COC(=O)C1C(O)c1ccccc1` (stereo unspecified) the EC50 was over 200 µM and the IC50 was over 200 µM.
In the case of `COc1ccc2c(c1OC)C(=O)c1ccoc1C2=O`, the outcome is reported as “inactive”.
For `Cc1ccnc2c1C(=O)C(=O)C=C2N1CCC(C)CC1`, the outcome was “inactive”.
`CC(=N/NC(=S)N1CCCCC1)/C(=N\NC(=S)N1CCCCC1)c1ccccc1` showed an EC50 of over 200 µM and an IC50 of 3.55 µM.
In the case of `CC(C)C(=O)CC(c1ccc(Br)cc1)N1N=C(C(C)C)CC1c1ccc(Br)cc1` (stereo unspecified), the EC50 is reported as over 10 µM and the IC50 is reported as over 10 µM.
In the case of `CC(C)(C)c1cc(Cc2ccc(S(C)(=O)=O)cc2)c(O)c(C(C)(C)C)c1`, the outcome is reported as “inactive”.
Compound `CC1=C/C(=N\OCC(=O)O)CC(c2ccc(C(C)C)cc2)C1` (stereo unspecified) has an EC50 of over 200 µM and an IC50 of 97.7 µM.
`COC(=O)C1CCC(=O)N1C(c1ccc(OC)cc1)c1cc(OC)c(OC)c(OC)c1` (stereo unspecified) showed an EC50 of over 2 µM and an IC50 of 0.1 µM.
`O=C(/C=C(\O)C(=O)O)/C=C(\O)c1ccccc1` gave an EC50 of over 200 µM and an IC50 of over 200 µM.
In the case of `CCOC(=O)c1cnc2c(ccc3ncccc32)c1NCCCN(CC)CC`, the EC50 is reported as over 69.2 µM and the IC50 is reported as 9.55 µM.
Work on `O=C(CCCN1CCC(n2c(=O)[nH]c3ccccc32)CC1)c1ccc(F)cc1` yielded an EC50 of over 200 µM and an IC50 of 89.1 µM.
In the case of `CC(C)CN1CN(c2ccccc2)C2(CCN(CC(C)(c3ccc(F)cc3)C3OCCO3)CC2)C1=O` (stereo unspecified), the EC50 is reported as over 100 µM and the IC50 is reported as 12.6 µM.
`CCCCCCCCCCCCCCCCCCNc1nc(=O)n(C2CC(O)C(COP(=O)(O)OCC3CCC(n4ccc(N)nc4=O)O3)O2)cc1F` (stereo unspecified) showed an EC50 of 1.51 µM and an IC50 of 2.04 µM.
`CC(=N\N)/C(C)=N/N=C(C)/C(C)=N/N=C(C)/C(C)=N/N` gave an EC50 of over 200 µM and an IC50 of 178 µM.
Compound `Cc1cn(C(C)OCCN(O)C(=O)Oc2ccccc2)c(=O)[nH]c1=O` (stereo unspecified) has an EC50 of over 200 µM and an IC50 of over 200 µM.
`COc1ccccc1/C=C/C(=O)N1CCC2(CC1)C(=O)N(C)CN2c1ccccc1` showed an EC50 of over 200 µM and an IC50 of 51.3 µM.
For `CC(C)CCCC(C)[C@H]1CCC2[C@@H]3CCC4Nc5nocc5C[C@]4(C)C3CC[C@@]21C` (stereo partly specified), the outcome was “inactive”.
`O=C1OC(=O)C2=C1C1C=CC2O1` was tested, and the EC50 was over 1070 µM and the IC50 was 295 µM.
`CC1=C(/C=C/C(C)=C/C=C/C(C)=C/C(=O)O)C(C)(C)CCC1` was tested, and the outcome was “inactive”.
For `O=C1Nc2cc([N+](=O)[O-])ccc2NC1/C(=N\Nc1ccccc1)C(O)c1cccc([N+](=O)[O-])c1` (stereo unspecified), the EC50 was over 417 µM and the IC50 was 47.9 µM.
In the case of `CNC(=O)CCC(NC(C)=O)C(=O)NC(Cc1ccc(NC(=O)CCCCC(C)=O)cc1)C(=O)NC(CCC(=O)NC)C(=O)NC` (stereo unspecified), the EC50 is reported as over 200 µM and the IC50 is reported as over 200 µM.
`Cn1c(N)c2c3c(sc2nc1=O)CCCC3` was tested, and the EC50 was 77.6 µM and the IC50 was over 100 µM.
`Cn1cnc([N+](=O)[O-])c1SC1=NCCS1` was tested, and the EC50 was over 1020 µM and the IC50 was 7.08 µM.
`COc1c(Sc2ccccc2)cc(Sc2ccccc2)c2cccnc12` was tested, and the outcome was “inactive”.
In the case of `COC(=O)C1Cc2ccc3c(c2C1=O)CCCC3` (stereo unspecified), the EC50 is reported as over 200 µM and the IC50 is reported as 186 µM.
For `Oc1ccc2c(c1)OCC1(O)Cc3cc(O)c(O)cc3C21` (stereo unspecified), the outcome was “inactive”.
In the case of `O=C1C=C(C2=CC(=O)C(=O)c3ccccc32)c2ccccc2C1=O`, the EC50 is reported as over 151 µM and the IC50 is reported as 1.91 µM.
With `COc1ccccc1C=C(C#N)C#N` the EC50 was over 977 µM and the IC50 was 229 µM.
